From the supplement of paper PMC10307832 come the findings set out here.

Experiment in all cases: relative viability (nuclei count vs DMSO), 5 days (fraction); higher = more cells survive
Compound in the test “Crizotinib + OSI-027”: C[C@@H](Oc1cc(-c2cnn(C3CCNCC3)c2)cnc1N)c1c(Cl)ccc(F)c1Cl [Crizotinib] + COc1cccc2cc(-c3nc([C@H]4CC[C@H](C(=O)O)CC4)n4ncnc(N)c34)[nH]c12 [OSI-027] (partner 0.5 µM)
Summed up: (§1)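 Nuclei were stained with Hoechst during a one-step fixation (final 0.05% Triton X-100, 1% formaldehyde, 1 ug/ml Hoechst) carried out 5 days after dosing, then counted on 4× images. The cells, lung cancer lines in 1536-well plates, had been dosed by pin tool the day after seeding with one drug alone or a fixed anchor-drug dose plus five library-drug doses (not always all listed) in √10 steps. Relative viability is the nuclei count in treated wells divided by that in vehicle wells, and each value is the median of duplicate plates.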

Compound in the test “Olaparib + Tozasertib”: O=C(c1cc(Cc2n[nH]c(=O)c3ccccc23)ccc1F)N1CCN(C(=O)C2CC2)CC1 [Olaparib] + Cc1cc(Nc2cc(N3CCN(C)CC3)nc(Sc3ccc(NC(=O)C4CC4)cc3)n2)n[nH]1 [Tozasertib] (partner 0.1 µM)
Summed up: as §1

Compound in the test “Crizotinib + Trametinib”: C[C@@H](Oc1cc(-c2cnn(C3CCNCC3)c2)cnc1N)c1c(Cl)ccc(F)c1Cl [Crizotinib] + CC(=O)Nc1cccc(-n2c(=O)n(C3CC3)c(=O)c3c(Nc4ccc(I)cc4F)n(C)c(=O)c(C)c32)c1 [Trametinib] (partner 0.02 µM)
Put shortly:
as §1

Compound in the test “Carfilzomib + Luminespib”: CC(C)C[C@H](NC(=O)[C@H](CCc1ccccc1)NC(=O)CN1CCOCC1)C(=O)N[C@@H](Cc1ccccc1)C(=O)N[C@@H](CC(C)C)C(=O)[C@@]1(C)CO1 [Carfilzomib] + CCNC(=O)c1noc(-c2cc(C(C)C)c(O)cc2O)c1-c1ccc(CN2CCOCC2)cc1 [Luminespib] (partner 0.01 µM)
Put shortly:
as §1

Compound in the test “Crizotinib + Alpelisib”: C[C@@H](Oc1cc(-c2cnn(C3CCNCC3)c2)cnc1N)c1c(Cl)ccc(F)c1Cl [Crizotinib] + Cc1nc(NC(=O)N2CCC[C@H]2C(N)=O)sc1-c1ccnc(C(C)(C)C(F)(F)F)c1 [Alpelisib] (partner 2 µM)
Put shortly: as §1

Turning to NCI-H1793, the relative viability is 0.256 with Crizotinib + OSI-027 (first compound 0.03162 µM); 0.278 in the test with Crizotinib + OSI-027 (first compound 0.1 µM); 0.266 in the test with Crizotinib + OSI-027 (first compound 1 µM); 0.324 in the test with Olaparib + Tozasertib (first compound 0.08 µM); 0.279 with Olaparib + Tozasertib (first compound 0.253 µM); 0.409 in the test with Olaparib + Tozasertib (first compound 2.53 µM). Besides, the relative viability is 0.358 in the test with Olaparib + Tozasertib (first compound 8 µM); 0.467 in the test with Crizotinib + Trametinib (first compound 0.03162 µM); 0.399 with Crizotinib + Trametinib (first compound 0.1 µM); 0.461 with Crizotinib + Trametinib (first compound 1 µM); 0.216 with Carfilzomib + Luminespib (first compound 0.003162 µM); 0.172 with Carfilzomib + Luminespib (first compound 0.01 µM). Moreover, the relative viability came to 0.181 in the test with Carfilzomib + Luminespib (first compound 0.03162 µM); 0.154 with Carfilzomib + Luminespib (first compound 0.1 µM); 0.703 with Crizotinib + Alpelisib (first compound 0.01 µM); 0.789 in the test with Crizotinib + Alpelisib (first compound 0.03162 µM); 0.729 with Crizotinib + Alpelisib (first compound 0.1 µM); 0.872 in the test with Crizotinib + Alpelisib (first compound 1 µM).
